# From article PMC10066365, “Nemacol is a small molecule inhibitor of C. elegans vesicular acetylcholine transporter with anthelmintic potential” (Nature Communications, 2023)
# Several values for one entry are separate records, joined by “and”; a condition that tells them apart may be missing. Equal values may be shown once. Read-outs that look alike come from different tables or passages of the source.
# Columns and labels:
# [1] = tested on: C. elegans; assay: C. elegans motor phenotype scoring on solid media (Punc/jerky-unc, coiled, paralyzed), wild-type young adults; format: in vivo, Caenorhabditis elegans; conditions: for atypical locomotion (number of animals) / coiled (number of animals) / no phene (number of animals) / paralyzed (number of animals) / any phene: mean % fraction of young adults exhibiting any phenotype (coiled, jerky-Unc or paralyzed): one hour; for atypical locomotion (number of animals) / coiled (number of animals) / no phene (number of animals) / paralyzed (number of animals): young adults, 20 animals per trial, single technical replicate; for any phene: mean % fraction of young adults exhibiting any phenotype (coiled, jerky-Unc or paralyzed): mean of three biological replicates; for EC50: Caenorhabditis elegans, any motor phenotype after 1 h on solid media, ± 95% CI, read-out: C. elegans - motor disruption EC50
# [2] = biological target: T1, rat VAChT (Rattus norvegicus, UniProt Q62666); assay: [3H]Vesamicol competitive radioligand binding, PC12 cells expressing ratVAChT
# T1 construct: expressed in transfected cells; host or cells: rat PC12 (PC12 A123.7) cells, stably transfected; shared by Dr. Ali Roghani (Texas Tech University)
# T1 sequence (Q62666 1-530): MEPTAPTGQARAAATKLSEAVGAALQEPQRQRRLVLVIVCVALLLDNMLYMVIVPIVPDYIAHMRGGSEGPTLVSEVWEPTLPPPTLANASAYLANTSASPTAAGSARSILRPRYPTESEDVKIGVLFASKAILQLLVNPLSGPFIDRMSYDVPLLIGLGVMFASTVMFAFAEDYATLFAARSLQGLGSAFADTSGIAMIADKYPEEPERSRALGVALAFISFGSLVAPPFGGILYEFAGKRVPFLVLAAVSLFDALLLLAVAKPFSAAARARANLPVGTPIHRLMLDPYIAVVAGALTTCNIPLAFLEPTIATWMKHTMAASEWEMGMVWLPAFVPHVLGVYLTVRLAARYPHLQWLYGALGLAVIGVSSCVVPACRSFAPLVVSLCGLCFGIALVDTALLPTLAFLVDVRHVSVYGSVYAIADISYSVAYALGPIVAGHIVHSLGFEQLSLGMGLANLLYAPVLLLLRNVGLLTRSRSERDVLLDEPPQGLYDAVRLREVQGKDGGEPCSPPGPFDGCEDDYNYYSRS
# [3] = tested on: Dirofilaria immitis microfilariae; assay: Dirofilaria immitis microfilariae immobility assay (DiroImager, 72 h); conditions: Dirofilaria immitis microfilariae
# Outline: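 About 250 freshly purified microfilariae of the Missouri isolate per well in supplemented RPMI 1640, exposed to compound for 72 h. Motility scored by automated whole-plate optical imaging; medium with 1% DMSO as negative control.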
# [4] = tested on: Dirofilaria immitis L3/L4; assay: Dirofilaria immitis L3/L4 motility assay (DiroImager, 72 h); conditions: Dirofilaria immitis L4
# [5] = tested on: Haemonchus contortus; assay: Haemonchus contortus L3 Migration Trap Assay (motility, 24 h exposure); conditions: for efficacy: hc weybridge, motilityTrap24hNoWash, 24 h, single wells
# [6] = tested on: Pristionchus pacificus; assay: Pristionchus pacificus motor disruption dose-response on solid media, 1 h; conditions: for EC50: Pristionchus pacificus, 1 h, read-out: P. pacificus motor disruption EC50; for mean % any phene: any phenotype (coiled, jerky-Unc or paralyzed) at one hour, mean of three biological replicates; for rep 1 atypical locomotion / rep 1 coiled / rep 1 no phene / rep 1 paralyzed / rep 2 atypical locomotion / rep 2 coiled / rep 2 no phene / rep 2 paralyzed / rep 3 atypical locomotion / rep 3 coiled / rep 3 no phene / rep 3 paralyzed: count of 20 animals per trial, one hour
# [7] = [3H]Vesamicol binding, PC12, experiment 1, read-out: expt 1 Ki (M) vs. rat VAChT (PC12)
# [8] = [3H]Vesamicol binding, PC12, experiment 2, read-out: expt 2 Ki (M) vs. rat VAChT (PC12)
# [9] = [3H]Vesamicol binding, rat VAChT (PC12), mean of 2-3 experiments, read-out: mean Ki
smiles,measurement,setting,value
CC1CCC(N2CCN(c3ccc(F)cc3)CC2)CC1 (centres unmarked) [Nemacol-53],atypical locomotion (number of animals),[1]; 3.75uM,6 and 2 and 1 and 3 and 13 and 8
same,coiled (number of animals),[1]; 3.75uM,0
same,no phene (number of animals),[1]; 3.75uM,14 and 18 and 19 and 17 and 7 and 12
same,paralyzed (number of animals),[1]; 3.75uM,0
same,"any phene: mean % fraction of young adults exhibiting any phenotype (coiled, jerky-Unc or paralyzed)",[1]; 3.75uM,27.5%
same,atypical locomotion (number of animals),[1]; 15uM,3 and 9 and 11 and 13 and 18 and 17
same,coiled (number of animals),[1]; 15uM,0 and 1 and 4 and 3 and 2
same,no phene (number of animals),[1]; 15uM,4 and 2 and 0 and 3
same,paralyzed (number of animals),[1]; 15uM,13 and 8 and 5 and 4 and 0
same,"any phene: mean % fraction of young adults exhibiting any phenotype (coiled, jerky-Unc or paralyzed)",[1]; 15uM,92.5%
same,atypical locomotion (number of animals),[1]; 60uM,0 and 2
same,coiled (number of animals),[1]; 60uM,13 and 15 and 9 and 12 and 16
same,no phene (number of animals),[1]; 60uM,0
same,paralyzed (number of animals),[1]; 60uM,7 and 5 and 9 and 6 and 2
same,EC50,[1],5.5 ± 1.6 µM
same,Ki,[2]; [7],5.54e-07 M
same,Ki,[2]; [8],1.04e-06 M
same,Ki,[2]; [9],7.98e-07 M
same,"% effect (motility), DIROIM MF",[3]; 0.016 µM,0%
same,"% effect (motility), DIROIM MF",[3]; 0.08 µM,0%
same,"% effect (motility), DIROIM MF",[3]; 0.4 µM,0%
same,"% effect (motility), DIROIM MF",[3]; 2 µM,0%
same,"% effect (motility), DIROIM MF",[3]; 10 µM,0%
same,"% effect (motility), DIROIM L4",[4]; 10 µM,5%
same,"% effect (motility), DIROIM L4",[4]; 50 µM,20%
same,effect on Ivermectin's ability to paralyze H. contortus,"[5]; EC30 concentration of Nemacol-53 (26.4 µM), P = 0.002",significantly enhance
same,EC30,[5]; H. contortus L3 motility,26 µM
same,EC50,[5]; Haemonchus contortus,40.6 µM
same,EC50,[6],12.8 ± 1.2 µM
same,mean % any phene,[6]; conc 3.75,8.333%
same,rep 1 atypical locomotion,[6]; conc 3.75,2 and 3
same,rep 1 coiled,[6]; conc 3.75,0
same,rep 1 no phene,[6]; conc 3.75,18 and 17
same,rep 1 paralyzed,[6]; conc 3.75,0
same,rep 2 atypical locomotion,[6]; conc 3.75,1
same,rep 2 coiled,[6]; conc 3.75,0
same,rep 2 no phene,[6]; conc 3.75,19
same,rep 2 paralyzed,[6]; conc 3.75,0
same,rep 3 atypical locomotion,[6]; conc 3.75,2 and 1
same,rep 3 coiled,[6]; conc 3.75,0
same,rep 3 no phene,[6]; conc 3.75,18 and 19
same,rep 3 paralyzed,[6]; conc 3.75,0
same,mean % any phene,[6]; conc 15,57.5%
same,rep 1 atypical locomotion,[6]; conc 15,12 and 13
same,rep 1 no phene,[6]; conc 15,7
same,rep 1 paralyzed,[6]; conc 15,0
same,rep 2 paralyzed,[6]; conc 15,0
same,rep 3 coiled,[6]; conc 15,2
same,mean % any phene,[6]; conc 60,100%
same,rep 1 atypical locomotion,[6]; conc 60,0
same,rep 1 coiled,[6]; conc 60,8 and 13
same,rep 1 no phene,[6]; conc 60,0
same,rep 1 paralyzed,[6]; conc 60,12 and 7
same,rep 2 coiled,[6]; conc 60,9 and 14
same,rep 2 no phene,[6]; conc 60,0
same,rep 2 paralyzed,[6]; conc 60,10 and 6
same,rep 3 atypical locomotion,[6]; conc 60,2 and 1
same,rep 3 coiled,[6]; conc 60,7 and 12
same,rep 3 no phene,[6]; conc 60,0
same,rep 3 paralyzed,[6]; conc 60,11 and 7
FC(F)(F)c1cccc(N2CCN(CC3CCCC3)CC2)c1 [Nemacol-63],atypical locomotion (number of animals),[1]; 3.75uM,0 and 4 and 6 and 2
same,coiled (number of animals),[1]; 3.75uM,0
same,no phene (number of animals),[1]; 3.75uM,20 and 16 and 14 and 18
same,paralyzed (number of animals),[1]; 3.75uM,0
same,"any phene: mean % fraction of young adults exhibiting any phenotype (coiled, jerky-Unc or paralyzed)",[1]; 3.75uM,18.3333%
same,atypical locomotion (number of animals),[1]; 15uM,14 and 16 and 18 and 15 and 17
same,coiled (number of animals),[1]; 15uM,3 and 0 and 2 and 1
same,no phene (number of animals),[1]; 15uM,0 and 4 and 3
same,paralyzed (number of animals),[1]; 15uM,3 and 4 and 0
same,"any phene: mean % fraction of young adults exhibiting any phenotype (coiled, jerky-Unc or paralyzed)",[1]; 15uM,94.1667%
same,atypical locomotion (number of animals),[1]; 60uM,8 and 10 and 11 and 9 and 14 and 15
same,coiled (number of animals),[1]; 60uM,1 and 3 and 2 and 4
same,no phene (number of animals),[1]; 60uM,0 and 5 and 1
same,paralyzed (number of animals),[1]; 60uM,11 and 7 and 9 and 0
same,"any phene: mean % fraction of young adults exhibiting any phenotype (coiled, jerky-Unc or paralyzed)",[1]; 60uM,95%
same,EC50,[1],6.1 ± 2.1 µM
same,"activity ratio, mammalian VAChT Ki to C. elegans in vivo EC50",[2],1.10
same,Ki,[2]; [7],4.89e-06 M
same,Ki,[2]; [8],8.47e-06 M
same,Ki,[2]; [9],6.68e-06 M
same,Ki,"[2]; [3H]Vesamicol displacement, mean, read-out: ratVAChT Ki",6.68e-06 M
same,"% effect (motility), DIROIM MF",[3]; 0.016 µM,0%
same,"% effect (motility), DIROIM MF",[3]; 0.08 µM,0%
same,"% effect (motility), DIROIM MF",[3]; 0.4 µM,0%
same,"% effect (motility), DIROIM MF",[3]; 2 µM,0%
same,"% effect (motility), DIROIM MF",[3]; 10 µM,0%
same,"% effect (motility), DIROIM L4",[4]; 10 µM,10%
same,"% effect (motility), DIROIM L4",[4]; 50 µM,0%
same,EC50,[6],> 60 µM
same,mean % any phene,[6]; conc 3.75,0.8333%
same,rep 1 atypical locomotion,[6]; conc 3.75,0
same,rep 1 coiled,[6]; conc 3.75,0
same,rep 1 no phene,[6]; conc 3.75,20
same,rep 1 paralyzed,[6]; conc 3.75,0
same,rep 2 atypical locomotion,[6]; conc 3.75,1
same,rep 2 coiled,[6]; conc 3.75,0
same,rep 2 no phene,[6]; conc 3.75,19
same,rep 2 paralyzed,[6]; conc 3.75,0
same,rep 3 atypical locomotion,[6]; conc 3.75,0
same,rep 3 coiled,[6]; conc 3.75,0
same,rep 3 no phene,[6]; conc 3.75,20
same,rep 3 paralyzed,[6]; conc 3.75,0
same,mean % any phene,[6]; conc 15,1.667%
same,rep 1 atypical locomotion,[6]; conc 15,0
same,rep 1 coiled,[6]; conc 15,0
same,rep 1 no phene,[6]; conc 15,20
same,rep 1 paralyzed,[6]; conc 15,0
same,rep 2 atypical locomotion,[6]; conc 15,0
same,rep 2 coiled,[6]; conc 15,0
same,rep 2 no phene,[6]; conc 15,19 and 20
same,rep 3 atypical locomotion,[6]; conc 15,0
same,rep 3 coiled,[6]; conc 15,0
same,rep 3 no phene,[6]; conc 15,20 and 19
same,mean % any phene,[6]; conc 60,10.8333%
same,rep 1 atypical locomotion,[6]; conc 60,4 and 3
same,rep 1 no phene,[6]; conc 60,16
same,rep 1 paralyzed,[6]; conc 60,0
same,rep 2 atypical locomotion,[6]; conc 60,1 and 2
same,rep 2 coiled,[6]; conc 60,0
same,rep 2 no phene,[6]; conc 60,18
same,rep 3 coiled,[6]; conc 60,0
same,rep 3 no phene,[6]; conc 60,20 and 19
same,rep 3 paralyzed,[6]; conc 60,0
O=[N+]([O-])c1ccc(N2CCN(CC3CCCCC3)CC2)cc1 [Nemacol_1],efficacy,[5]; dose 0.0195312 µM,0
same,efficacy,[5]; dose 0.078125 µM,0
same,efficacy,[5]; dose 0.3125 µM,0
same,efficacy,[5]; dose 1.25 µM,0
same,efficacy,[5]; dose 5 µM,0
CC1CCC(N2CCN(c3ccc(F)cc3)CC2)CC1 (centres unmarked) [Nemacol_53],efficacy,[5]; dose 0.00488281 µM,0
same,efficacy,[5]; dose 0.0195312 µM,0
same,efficacy,[5]; dose 80 µM,90.3789 and 92.5148 and 88.1185
c1ccc(N2CCN(CC3CCCC3)CC2)cc1 [Nemacol_62],efficacy,[5]; dose 5 µM,0
same,efficacy,[5]; dose 20 µM,0
same,efficacy,[5]; dose 80 µM,0
